From patent US11466047B2, “Cyclic di-nucleotide compounds as sting agonists” (Merck Sharp & Dohme Corp., priority 2017, dated 2022) come the findings set out here.

The target of experiment [1] is full-length HAQ STING (Homo sapiens (Human), UniProt Q86WV6, G230A/H232R/R293Q/R71H). Put plainly: 3H-cGAMP filtration binding assay (HAQ STING). To be noted: competition with tritiated cGAMP ligand, HAQ STING membrane. The text has this:
The ability of compounds to bind STING is quantified by the ability to compete with tritiated cGAMP ligand for human STING receptor membrane using a radioactive filter-binding assay. The binding assay employs STING receptor obtained from Hi-Five cell membranes overexpressing full-length HAQ STING prepared in-house and tritiated cGAMP ligand also purified in-house.
The ability of compounds to bind STING is quantified by their ability to compete with tritiated cGAMP ligand for human STING receptor membrane using a radioactive filter-binding assay. The binding assay employs STING receptor obtained from Trichoplusia ni cell membranes (T.ni; Expression Systems, cat #94-002F, www.expressionsystems.com) overexpressing full-length HAQ STING and tritiated cGAMP ligand.
The basic HAQ STING filtration assay protocol is as follows:
The compounds were serially titrated by the Hamilton STARPlus CORE in a 96-well plate (Greiner, #651201) using a 1:3 ten-point dose response format. After compound preparation, a 2.2 ug/ml working concentration of STING membrane (SEQ. ID. No. 1) was prepared by diluting concentrated membrane into assay buffer (lx PBS; Invitrogen #SH30028.02) and douncing 7× using a manual tissue homogenizer (Wheaton, #357546). 148 uL of prepared membrane was then manually added to each well of a 96-well deep-well polypropylene plate (Fisher Scientific, #12-566-121). Following membrane addition, 2 uL of either titrated test compound, DMSO control (Sigma #276855), or cold cGAMP control was added to the appropriate wells using a BIOMEK FX. Compound and membrane then preincubated for 60 min at RT to allow compound binding to equilibrate. Following equilibration, 8 nM of [^3H]c-GAMP ligand was prepared by diluting into assay buffer, and 50 uL of this working stock was then manually added to each well of the assay plate. Plates were then incubated at RT for 60 min, and the contents of each assay plate were then filtered through a 96-well GF/B filter plate (PerkinElmer, #6005250) using a TOMTEC MACH III Cell Harvester equipped with 20 mM HEPES buffer (Fisher Scientific, #BP299500). The filter plates were then dried at 55° C. for 30 min using a pressurized oven before 30 uL of ULTIMA GOLD F scintillate was added to each well. Tritium levels for each reaction well were then measured using a PerkinElmer TopCount plate reader.
(§1) After normalization to controls, the percent activity for each compound concentration was calculated by measuring the amount of remaining radioactivity. The plot of percent activity versus the log of compound concentration was fit with a 4-parameter dose response equation to calculate EC50 values.

Experiment [2] has as its system THP1 cells. Put plainly: IFN-β secretion in THP1 cell culture (5 h). The class given is cell-based, human. To be noted: 30 μM compound, relative to 2′3′-cGAMP at 30 μM; for activation at 30 µM: Homo sapiens, THP-1, 5 h, read-out: % Effect at 30 μM relative to 2′3′-cGAMP. On the procedure:
The ability of compounds to stimulate the secretion of interferon-beta from THP1 cells was measured using a human IFN-β AlphaLISA kit (Perkin Elmer, Cat. No. AL265F). The basic protocol is as follows:
A Labcyte Echo 550 acoustic dispenser was used to transfer 120 nL of compound dissolved in DMSO into the wells of an empty, sterile 384-well microplate, (Corning, Cat. No. 3712). THP1 cells (American Type Culture Collection, Cat. No. TIB202) previously frozen in Recovery Medium (Life Technologies, Cat. No. 12648-010) were thawed and immediately diluted 10-fold into 37° C. assay medium (RPMI 1640+L-Glutamine & phenol red, Life Technologies, Cat. No. 11875-085; 0.5% heat inactivated fetal bovine serum, Sigma Aldrich, Cat. No. F4135; 1 mM Sodium Pyruvate, Life Technologies, Cat. No. 11360-070; lx non-essential amino acids; Life Technologies, Cat. No. 11140-050). The cell viability and count was ascertained using a Beckman Coulter V-Cell XR cell counter. The cell suspension was centrifuged at 200×g for 5 min at RT. Cells were resuspended to a density of 0.8×10^6/mL in 37° C. assay medium. Subsequent liquid transfers were performed using either a Matrix electronic multichannel pipette or an Agilent Bravo Automated Liquid Handling Platform.
The assay was started by dispensing 40 μL of the previously prepared cell suspension into the wells of the plate containing compounds. After 5 h incubation at 37° C., 5% CO2 in a humidified atmosphere, the plate of cells and compounds was centrifuged at 200×g for 5 min at RT. From each well, 5 μL of supernatant was transferred into corresponding wells of a white 384-well plate (Perkin Elmer, Cat. No. 6005620). To these supernatant-containing wells was added 10 μL of 5× Anti-Analyte Acceptor beads (50 μg/mL of AlphaLISA HiBlock Buffer) and incubated for 30 min at RT while shaking on an orbital plate shaker. To each well was added 10 μL of 5× Biotinylated Antibody Anti-analyte (5 nM in AlphaLISA HiBlock Buffer) and incubated on an orbital plate shaker for 60 min at RT or overnight at 4° C. To each well was added 25 μL of 2×SA-Donor beads (80 μg/mL in AlphaLISA HiBlock Buffer) and incubated for 30-45 min at RT in the dark while shaking on an orbital plate shaker. The plate was then read on a Perkin Elmer Envision (λex=680 nm, λem=570 nm). The percent effect of the AlphaLISA signal at each compound concentration was calculated based on 30 uM cGAMP positive controls and 0.3% DMSO negative controls. The plot of percent effect versus the log of compound concentration was fit with a 4-parameter concentration response equation to calculate EC50 values. The test compounds were tested at concentrations 30000, 10000, 3333, 1111, 370.4, 123.4, 41.2, 13.7, 4.6, and 1.5 nM with 0.3% residual DMSO. The control compound, cGAMP was tested at concentrations 100000, 33333, 11111, 3704, 1235, 412, 137, 46, and 15 nM with 0.3% residual DMSO.
Compounds of the disclosure were evaluated for IFN-β secretion in THP1 cell culture as described above. The following table tabulates the biological data for these compounds as percent activation relative to 2′3′-cGAMP at the 30 μM concentration.

For experiment [3], the target named is full-length WT STING (Homo sapiens (Human), UniProt Q86WV6, H232R). Put plainly: 3H-cGAMP filtration binding assay (WT STING). To be noted: WT STING membrane. On the procedure:
The ability of compounds to bind STING is quantified by their ability to compete with tritiated cGAMP ligand for human STING receptor membrane using a radioactive filter-binding assay. The binding assay employs STING receptor obtained from Trichoplusia ni cell membranes (T.ni; Expression Systems, cat #94-002F, overexpressing full-length WT STING and tritiated cGAMP ligand.
The basic WT STING filtration assay protocol is as follows:
16 nM of [^3H] c-GAMP ligand was prepared by diluting into assay buffer, and 50 uL of this working stock was manually added to each well of the assay plate. After ligand addition, 2 uL of either titrated test compound, DMSO control (Sigma #276855), or cold cGAMP control was added to the appropriate wells using a BIOMEK FX. The serially titrated compound was prepared on a Hamilton STARPlus CORE in a 96-well plate (Greiner, #651201) using a 1:3 ten-point dose response format. Following compound addition, a 2.2 ug/ml working concentration of STING membrane (SEQ. ID. No. 3) was prepared by diluting concentrated membrane into assay buffer (1×PBS; Invitrogen #SH30028.02) and douncing 7× using a manual tissue homogenizer (Wheaton, #357546). 148 uL of this prepared membrane was then manually added to each well of a 96-well deep-well polypropylene plate (Fisher Scientific, #12-566-121). Compound, ligand, and membrane then incubated for 60 min at RT before the contents of each assay plate were filtered through a 96-well GF/B filter plate (PerkinElmer, #6005250) using a TOMTEC MACH III Cell Harvester equipped with 20 mM HEPES buffer (Fisher Scientific, #BP299500). The filter plates were then dried at 55° C. for 30 min using a pressurized VWR oven before 30 uL of ULTIMA GOLD F scintillate was added to each well. Tritium levels for each reaction well were then measured using a PerkinElmer TopCount plate reader.
as §1

The mark [4] stands for this setting: EC50, competition with tritiated cGAMP ligand.
Setting [5] is: competition with tritiated cGAMP ligand, read-out: EC50.

Each structure is given as a SMILES string. pEC50: −log10 of the molar value. Where two headings read alike, the source gives them in different places.

full-length HAQ STING, sequence (Q86WV6 whole entry, looked up, stated change not applied): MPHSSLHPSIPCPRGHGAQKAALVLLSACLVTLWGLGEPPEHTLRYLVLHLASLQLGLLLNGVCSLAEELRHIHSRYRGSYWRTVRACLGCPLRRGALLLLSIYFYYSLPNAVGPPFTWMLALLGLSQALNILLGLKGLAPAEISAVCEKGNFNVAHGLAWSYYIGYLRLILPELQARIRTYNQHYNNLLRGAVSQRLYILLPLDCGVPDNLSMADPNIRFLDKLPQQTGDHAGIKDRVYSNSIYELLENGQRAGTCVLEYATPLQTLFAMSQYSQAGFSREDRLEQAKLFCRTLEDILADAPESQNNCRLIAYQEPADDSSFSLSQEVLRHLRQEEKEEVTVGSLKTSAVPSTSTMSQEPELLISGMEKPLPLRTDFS
full-length WT STING, sequence (Q86WV6 whole entry, looked up, stated change not applied): as above

With `Nc1nc2c(ncn2[C@@H]2O[C@@H]3COP(=S)(S)O[C@H]4[C@H](F)[C@H](n5cnc6c(N)ncnc65)O[C@@H]4COP(O)(=S)O[C@@H]2[C@@H]3F)c(=O)[nH]1` (single isomer, unassigned) [Example 1], the negative-log EC50 (pEC50) in experiment [1] and in experiment [3] (setting [4]) was > 9.00 in each case. In experiment [2], the activation at 30 µM stood at 165%.
In the case of `Nc1nc2c(ncn2[C@@H]2O[C@@H]3COP(=S)(S)O[C@H]4[C@H](F)[C@H](n5cnc6c(N)ncnc65)O[C@@H]4COP(O)(=S)O[C@@H]2[C@@H]3F)c(=O)[nH]1` (single isomer, unassigned) [Example 2], the pEC50 (in general, the negative decadic logarithm of the EC50, by convention in mol/L) in experiment [1] was 8.70; in experiment [3] (setting [4]), 8.05. Also, in experiment [2], the “% Effect at 30 μM relative to 2′3′-cGAMP” value is reported as 175%.
As to `Nc1nc2c(ncn2[C@@H]2O[C@@H]3COP(=S)(S)O[C@H]4C[C@H](n5cnc6c(N)ncnc65)O[C@@H]4COP(O)(=S)O[C@@H]2C3)c(=O)[nH]1` (single isomer, unassigned) [Example 3], the results for the negative logarithm of the EC50 (pEC50) in experiment [1] and in experiment [3] (setting [5]) were 8.70 and 8.40, respectively. Moreover, the activation at 30 µM in experiment [2] came out at 128%.
For `Nc1nc2c(ncn2[C@@H]2O[C@@H]3COP(=S)(S)O[C@H]4C[C@H](n5ccc6c(N)ncnc65)O[C@@H]4COP(O)(=S)O[C@@H]2C3)c(=O)[nH]1` (single isomer, unassigned) [Example 5], in that order: > 9.00, 8.10 and 95%.
For the molecule `Nc1nc2c(ncn2[C@@H]2O[C@@H]3COP(=S)(S)O[C@H]4C[C@H](n5ccc6c(N)ncnc65)O[C@@H]4COP(O)(=S)O[C@@H]2C3)c(=O)[nH]1` (single isomer, unassigned) [Example 6], the pEC50 in experiment [1] is 7.55; in experiment [3] (setting [5]), 6.94. In addition, in experiment [2], the “% Effect at 30 μM relative to 2′3′-cGAMP” value was determined as 91%.
For `Nc1nc2c(ncn2[C@@H]2O[C@@H]3COP(=S)(S)O[C@H]4C[C@H](c5cnc6c(N)ncnn56)O[C@@H]4COP(O)(=S)O[C@@H]2C3)c(=O)[nH]1` (single isomer, unassigned) [Example 7], the negative logarithm of the EC50 (pEC50) in experiment [1] and in experiment [3] (setting [5]) was > 9.00 throughout. The “% Effect at 30 μM relative to 2′3′-cGAMP” value in experiment [2] is on record as 173%.
In the case of `Nc1nc2c(ncn2[C@@H]2O[C@@H]3COP(=S)(S)O[C@H]4C[C@H](c5cnc6c(N)ncnn56)O[C@@H]4COP(O)(=S)O[C@@H]2C3)c(=O)[nH]1` (single isomer, unassigned) [Example 8], the negative logarithm of the EC50 (pEC50) in experiment [1] was 8.15; in experiment [3] (setting [5]), 7.89. Besides, in experiment [2], the “% Effect at 30 μM relative to 2′3′-cGAMP” value turned out to be 110%.
On to `Nc1nc2c(ncn2[C@@H]2O[C@@H]3COP(=S)(S)O[C@H]4[C@H]5OC[C@]4(COP(=O)(O)O[C@@H]2[C@H]3F)O[C@H]5n2cnc3c(N)ncnc32)c(=O)[nH]1` (stereo partly drawn) [Example 17, 2-amino-9-[(5R,7R,8S,12aR,14R,15R,15aS,18S)-14-(6-amino-9H-purin-9-yl)-18-fluoro-10-hydroxy-10-oxido-2-sulfanyl-2-sulfidohexahydro-14H-15,12a-(epoxymethano)-5,8-methanofuro[3,2-l][1,3,6,9,11,2,10]pentaoxadiphosphacyclotetradecin-7(12H)-yl]-1,9-dihydro-6H-purin-6-one], for which the pEC50 in experiment [1] was 7.82. The activation at 30 µM in experiment [2] came out at 145%.
Take `Nc1nc2c(ncn2[C@@H]2O[C@@H]3COP(O)(=S)O[C@H]4C[C@H](n5cnc6c(=O)[nH]cnc65)O[C@@H]4COP(=S)(S)O[C@@H]2C3)c(=O)[nH]1` (stereo partly drawn) [Example 26, 2-amino-9-[(5S,7R,8R,12aR,14R,15aS)-2-hydroxy-14-(6-oxo-1,6-dihydro-9H-purin-9-yl)-10-sulfanyl-2,10-disulfidooctahydro-12H-5,8-methanofuro[3,2-1][1,3,6,9,11,2,10]pentaoxadiphosphacyclotetradecin-7-yl]-1,9-dihydro-6H-purin-6-one]: the activation at 30 µM in experiment [2] was 75%. The pEC50 in experiment [3] (setting [5]) is 6.39.
